Test results reported in PubChem BioAssay AID330 (DTP/NCI, 2004).
“And” between values parts separate entries of the source, which are not always exact repeats. Equal values may be shown once. Toxic doses and inconclusive results are not listed.

System: P388 leukemia ip, CD2F1 mice, survival T/C
Test: NCI In Vivo Anticancer Drug Screen. Data for tumor model P388 Leukemia (intraperitoneal) in CD2F1 (CDF1) mice
Settings: endpoint: median survival time, higher = longer survival
Procedure, shortened: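 Mice carrying the transplanted tumor received test compound or vehicle. Survival was recorded in each group, and the value is the treated-group measurement divided by that of the vehicle-treated control group.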

[1] = dose: 50.0 mg/kg/injection, schedule: Q01DX009 (ip), vehicle: Klucel (hydroxypropylcellulose) (HPC)
[2] = dose: 100.0 mg/kg/injection, schedule: Q01DX009 (ip), vehicle: Klucel (hydroxypropylcellulose) (HPC)
[3] = dose: 200.0 mg/kg/injection, schedule: Q01DX009 (ip), vehicle: Klucel (hydroxypropylcellulose) (HPC)
[4] = dose: 100.0 mg/kg/injection, schedule: Q01DX001 (ip), vehicle: saline with Tween-80
[5] = dose: 200.0 mg/kg/injection, schedule: Q01DX001 (ip), vehicle: saline with Tween-80
[6] = dose: 12.5 mg/kg/injection, schedule: Q01DX009 (ip), vehicle: Klucel (hydroxypropylcellulose) (HPC)
[7] = dose: 25.0 mg/kg/injection, schedule: Q01DX009 (ip), vehicle: Klucel (hydroxypropylcellulose) (HPC)
[8] = dose: 6.25 mg/kg/injection, schedule: Q01DX009 (ip), vehicle: Klucel (hydroxypropylcellulose) (HPC)
[9] = dose: 50.0 mg/kg/injection, schedule: Q01DX009 (ip), vehicle: saline
[10] = dose: 100.0 mg/kg/injection, schedule: Q01DX009 (ip), vehicle: saline
[11] = dose: 200.0 mg/kg/injection, schedule: Q01DX009 (ip), vehicle: saline

With O=C(Nc1ccc2c(c1)OCO2)O/N=C1\C(=O)Nc2ccccc21 the T/C (dose: 25.0 mg/kg/injection, schedule: Q04DX003 (ip), vehicle: saline with Tween-80) was 100 % of control, the T/C (dose: 50.0 mg/kg/injection, schedule: Q04DX003 (ip), vehicle: saline with Tween-80) was 90 % of control and the T/C (dose: 100.0 mg/kg/injection, schedule: Q04DX003 (ip), vehicle: saline with Tween-80) was 90 % of control.

OCc1ccc(OCc2ccccc2)c(OCc2ccccc2)c1 was tested, and the T/C (dose: 50.0 mg/kg/injection, schedule: Q04DX003 (ip), vehicle: saline) was 98 % of control, the T/C (dose: 100.0 mg/kg/injection, schedule: Q04DX003 (ip), vehicle: saline) was 98 % of control and the T/C (dose: 200.0 mg/kg/injection, schedule: Q04DX003 (ip), vehicle: saline) was 104 % of control. For the same compound, the T/C (dose: 400.0 mg/kg/injection, schedule: Q04DX003 (ip), vehicle: saline) was 98 % of control.

In the case of COc1cc([C@@H]2c3cc4c(cc3[C@H](OC(=O)c3ccccc3C(=O)O)[C@H]3COC(=O)[C@H]23)OCO4)cc(OC)c1OC, the T/C (dose: 12.5 mg/kg/injection, schedule: Q01DX005 (ip), vehicle: Klucel (hydroxypropylcellulose) (HPC)) is reported as 119 % of control and the T/C (dose: 25.0 mg/kg/injection, schedule: Q01DX005 (ip), vehicle: Klucel (hydroxypropylcellulose) (HPC)) is reported as 119 % of control.

In the case of CC(=O)OC1OC(C[Se][As](C)C)C(OC(C)=O)C(OC(C)=O)C1OC(C)=O (centres undefined), the T/C [1] is reported as 107 % of control, the T/C [2] is reported as 120 % of control and the T/C [3] is reported as 114 % of control.

In the case of c1ccc2nc(C[n+]3cccc4ccccc43)ccc2c1, the T/C (dose: 3.12 mg/kg/injection, schedule: Q01DX005 (ip), vehicle: saline) is reported as 105 % of control, the T/C (dose: 6.25 mg/kg/injection, schedule: Q01DX005 (ip), vehicle: saline) is reported as 106 % of control and the T/C (dose: 12.5 mg/kg/injection, schedule: Q01DX005 (ip), vehicle: saline) is reported as 109 % of control.

With CN(c1ccccc1)S(=O)(=O)c1ccc2ccccc2c1O the T/C [4] was 101 % of control, the T/C [5] was 100 % of control and the T/C (dose: 400.0 mg/kg/injection, schedule: Q01DX001 (ip), vehicle: saline with Tween-80) was 91 % of control.

With CCC(=O)NC1=C(N2CC2C)C(=O)C(NC(=O)CC)=C(N2CC2C)C1=O (centres undefined) the T/C [6] was 210 % of control, the T/C (dose: 12.5 mg/kg/injection, schedule: Q01DX009 (ip), vehicle: saline) was 164 % of control and the T/C [7] was 103 % of control. The T/C (dose: 25.0 mg/kg/injection, schedule: Q01DX009 (ip), vehicle: saline) was 117 % of control.

With Cc1sc(NCc2ccccc2)c(C#N)c1C the T/C [8] was 101 % of control, the T/C [6] was 97 % of control and the T/C [7] was 93 % of control. For the same compound, the T/C [2] was 86 % of control.

In the case of CC(C)CCN=Cc1ccccc1O.CC(C)CCN=Cc1ccccc1O.[Zn], the T/C [1] is reported as 98 % of control and the T/C [2] is reported as 104 % of control.

In the case of CC#CCOCC(O)CO (centres undefined), the T/C (dose: 12.5 mg/kg/injection, schedule: Q01DX009 (ip), vehicle: water) is reported as 105 % of control, the T/C (dose: 25.0 mg/kg/injection, schedule: Q01DX009 (ip), vehicle: water) is reported as 108 % of control and the T/C (dose: 50.0 mg/kg/injection, schedule: Q01DX009 (ip), vehicle: water) is reported as 121 % of control. For the same compound, the T/C (dose: 67.0 mg/kg/injection, schedule: Q01DX009 (ip), vehicle: water) was 120 % of control.

With CCCn1c(O)c(C=N)c(=O)[nH]c1=O the T/C (dose: 100.0 mg/kg/injection, schedule: Q01DX009 (ip), vehicle: saline with Tween-80) was 87 % of control and the T/C (dose: 200.0 mg/kg/injection, schedule: Q01DX009 (ip), vehicle: saline with Tween-80) was 95 % of control.

N#CC1(Nc2ccccc2)CCCC1 was tested, and the T/C (dose: 3.13 mg/kg/injection, schedule: Q01DX009 (ip), vehicle: Klucel (hydroxypropylcellulose) (HPC)) was 104 % of control, the T/C [8] was 104 % of control and 92 % of control and 96 % of control and the T/C [6] was 100 % of control and 90 % of control and 98 % of control. The T/C [7] was 100 % of control and 96 % of control and the T/C [1] was 104 % of control.

With COc1cc([N+](=O)[O-])ccc1Nc1c2ccccc2nc2ccccc12 the T/C [1] was 99 % of control, the T/C [2] was 98 % of control and the T/C [3] was 90 % of control.

For O=C1C(O)[C@@H](O)C(=O)N1Cc1ccccc1 (some centres undefined), the T/C (dose: 60.0 mg/kg/injection, schedule: Q01DX005 (ip), vehicle: Klucel (hydroxypropylcellulose) (HPC)) was 97 % of control, the T/C (dose: 120.0 mg/kg/injection, schedule: Q01DX005 (ip), vehicle: Klucel (hydroxypropylcellulose) (HPC)) was 102 % of control and the T/C (dose: 240.0 mg/kg/injection, schedule: Q01DX005 (ip), vehicle: Klucel (hydroxypropylcellulose) (HPC)) was 93 % of control.

In the case of CCn1c(O)c(N=NC(=S)NC)c2ccccc21, the T/C (dose: 9.37 mg/kg/injection, schedule: Q01DX009 (ip), vehicle: saline with Tween-80) is reported as 101 % of control, the T/C (dose: 18.75 mg/kg/injection, schedule: Q01DX009 (ip), vehicle: saline with Tween-80) is reported as 104 % of control and the T/C (dose: 37.5 mg/kg/injection, schedule: Q01DX009 (ip), vehicle: saline with Tween-80) is reported as 93 % of control.

For CCCC1(CC(=O)O)OCCc2c1[nH]c1ccccc21 (centres undefined), the T/C [1] was 102 % of control and the T/C [2] was 108 % of control.

With CCC(C)N(C(=O)c1ccccc1)c1ccccc1 (centres undefined) the T/C (dose: 12.5 mg/kg/injection, schedule: Q01DX009 (ip), vehicle: other) was 99 % of control and 106 % of control, the T/C (dose: 12.5 mg/kg/injection, schedule: Q01DX009 (ip), vehicle: saline + Tween-80 + alcohol) was 101 % of control and the T/C (dose: 25.0 mg/kg/injection, schedule: Q01DX009 (ip), vehicle: other) was 100 % of control and 102 % of control. For the same compound, the T/C (dose: 25.0 mg/kg/injection, schedule: Q01DX009 (ip), vehicle: saline + Tween-80 + alcohol) was 104 % of control, the T/C (dose: 50.0 mg/kg/injection, schedule: Q01DX009 (ip), vehicle: other) was 102 % of control and the T/C (dose: 50.0 mg/kg/injection, schedule: Q01DX009 (ip), vehicle: saline + Tween-80 + alcohol) was 106 % of control.

CS/C(=C/c1ccc2ccccc2[n+]1C)N1CCOCC1 was tested, and the T/C (dose: 6.25 mg/kg/injection, schedule: Q01DX005 (ip), vehicle: saline with Tween-80) was 105 % of control and 107 % of control and 108 % of control, the T/C (dose: 12.5 mg/kg/injection, schedule: Q01DX005 (ip), vehicle: saline with Tween-80) was 103 % of control and 105 % of control and 119 % of control and the T/C (dose: 25.0 mg/kg/injection, schedule: Q01DX005 (ip), vehicle: saline with Tween-80) was 110 % of control (2×) and 121 % of control.

For O=C(Cc1ccccc1)N1CCc2cc3c(cc2/C1=C/c1cc2c(cc1Br)OCO2)OCO3, the T/C (dose: 12.5 mg/kg/injection, schedule: Q01DX001 (ip), vehicle: saline + alcohol) was 100 % of control, the T/C (dose: 25.0 mg/kg/injection, schedule: Q01DX001 (ip), vehicle: saline + alcohol) was 99 % of control and the T/C (dose: 50.0 mg/kg/injection, schedule: Q01DX001 (ip), vehicle: saline + alcohol) was 100 % of control.

For C[CH2][Ge]([CH3])([CH2]C)[CH2]CCC[CH2][Sn]([CH3])([CH3])[CH3], the T/C [9] was 98 % of control, the T/C [10] was 99 % of control and the T/C [11] was 97 % of control.

With Cc1nn(C(N)=S)c(C)c1N=Nc1ccc(O)cc1 the T/C (dose: 50.0 mg/kg/injection, schedule: Q01DX005 (ip), vehicle: saline with Tween-80) was 103 % of control, the T/C (dose: 100.0 mg/kg/injection, schedule: Q01DX005 (ip), vehicle: saline with Tween-80) was 103 % of control and the T/C (dose: 200.0 mg/kg/injection, schedule: Q01DX005 (ip), vehicle: saline with Tween-80) was 107 % of control.

COc1cc(C2(C3C(CO)OC(=O)C3Cc3ccc4c(c3)OCO4)SCCCS2)cc(OC)c1OC (centres undefined) was tested, and the T/C (dose: 25.0 mg/kg/injection, schedule: Q04DX002 (ip), vehicle: saline with Tween-80) was 100 % of control and the T/C (dose: 50.0 mg/kg/injection, schedule: Q04DX002 (ip), vehicle: saline with Tween-80) was 87 % of control.

For CC(C)(CS)C(=O)O, the T/C [9] was 103 % of control.

c1ccc(C23CN(Cc4ccccc42)Cc2ccccc23)cc1 was tested, and the T/C [4] was 95 % of control and the T/C [5] was 88 % of control.

c1cc2ccc1CCc1ccc(cc1)CC2 was tested, and the T/C (dose: 100.0 mg/kg/injection, schedule: Q01DX001 (ip), vehicle: saline sonified) was 90 % of control, the T/C (dose: 200.0 mg/kg/injection, schedule: Q01DX001 (ip), vehicle: saline sonified) was 100 % of control and the T/C (dose: 400.0 mg/kg/injection, schedule: Q01DX001 (ip), vehicle: saline sonified) was 100 % of control.

For CCOC(=O)CC1Cc2ccc3ccc(OC)cc3c2C1=O (centres undefined), the T/C (dose: 12.5 mg/kg/injection, schedule: Q01DX009 (ip), vehicle: distilled water + Tween-80) was 102 % of control, the T/C (dose: 25.0 mg/kg/injection, schedule: Q01DX009 (ip), vehicle: distilled water + Tween-80) was 100 % of control and the T/C (dose: 50.0 mg/kg/injection, schedule: Q01DX009 (ip), vehicle: distilled water + Tween-80) was 95 % of control. The T/C (dose: 100.0 mg/kg/injection, schedule: Q01DX009 (ip), vehicle: distilled water + Tween-80) was 97 % of control and the T/C (dose: 200.0 mg/kg/injection, schedule: Q01DX009 (ip), vehicle: distilled water + Tween-80) was 93 % of control.

With CCCCCCC(/C=C/c1ccc(Cl)c(Cl)c1)=N\NC(N)=O the T/C [9] was 104 % of control, the T/C [10] was 100 % of control and the T/C [11] was 98 % of control.
